According to article PMC9039177 (Frontiers in Chemistry, 2022):
Converted amounts (≈) assume the structure as drawn. “And” between values parts separate entries of the source, which are not always exact repeats. Equal entries are not always repeated. “Also recorded” adds a separate entry of the source. Structures can show the parent of a compound that is named as a salt. Where two headings read alike, the source gives them in different places.

How the values were obtained:
SARS-CoV-2 PLpro [1] = biological target: T1, SARS-CoV-2 PLpro (Severe acute respiratory syndrome coronavirus 2, UniProt P0DTD1); experiment: biochemical
in vitro [2] = details: mouse, microsomes, pH 7.4
in vitro [3] = details: human, microsomes, pH 7.4
SARS-CoV-2 [4] = format: cell-based
SARS-CoV PLpro [5] = biological target: T2, SARS-CoV PLpro (Severe acute respiratory syndrome coronavirus, UniProt P0C6X7); experiment: biochemical; format: binding
MERS-CoV PLpro [6] = biological target: T3, MERS-CoV PLpro (Middle East respiratory syndrome-related coronavirus, UniProt K9N7C7); experiment: biochemical
SARS-CoV-2 PLpro [7] = biological target: T1, SARS-CoV-2 PLpro; experiment: biochemical; format: binding
in vitro [8] = details: human, Caco-2, pH 7.4
physchem = details: kinetic from dmso stock
MERS-CoV PLpro [9] = biological target: T3, MERS-CoV PLpro; experiment: biochemical; format: binding
SARS-CoV PLpro [10] = biological target: T2, SARS-CoV PLpro; experiment: biochemical
[11] = system: human DUBs (panel of 41 enzymes); format: biochemical
SARS-CoV-2 [12] = details: cited from earlier work
SARS-CoV-2 PLpro [13] = biological target: T1, SARS-CoV-2 PLpro; details: read-out: IC50 against PLpro; cited from earlier work
human USP21 = human USP21 (Homo sapiens, UniProt Q9UK80); experiment: biochemical
Calu-3 cells = details: cited from earlier work

T3 sequence (K9N7C7 1482-1803 limits assumed): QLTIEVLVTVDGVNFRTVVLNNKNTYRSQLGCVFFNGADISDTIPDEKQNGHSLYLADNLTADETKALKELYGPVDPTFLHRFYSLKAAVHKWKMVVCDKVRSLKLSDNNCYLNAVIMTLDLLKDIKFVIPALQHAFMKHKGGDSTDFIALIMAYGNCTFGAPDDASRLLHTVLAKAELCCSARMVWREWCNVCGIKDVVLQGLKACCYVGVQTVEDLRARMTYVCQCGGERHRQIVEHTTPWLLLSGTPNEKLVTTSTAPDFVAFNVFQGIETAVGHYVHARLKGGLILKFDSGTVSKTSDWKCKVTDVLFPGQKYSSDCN
human USP21, sequence (Q9UK80 whole entry): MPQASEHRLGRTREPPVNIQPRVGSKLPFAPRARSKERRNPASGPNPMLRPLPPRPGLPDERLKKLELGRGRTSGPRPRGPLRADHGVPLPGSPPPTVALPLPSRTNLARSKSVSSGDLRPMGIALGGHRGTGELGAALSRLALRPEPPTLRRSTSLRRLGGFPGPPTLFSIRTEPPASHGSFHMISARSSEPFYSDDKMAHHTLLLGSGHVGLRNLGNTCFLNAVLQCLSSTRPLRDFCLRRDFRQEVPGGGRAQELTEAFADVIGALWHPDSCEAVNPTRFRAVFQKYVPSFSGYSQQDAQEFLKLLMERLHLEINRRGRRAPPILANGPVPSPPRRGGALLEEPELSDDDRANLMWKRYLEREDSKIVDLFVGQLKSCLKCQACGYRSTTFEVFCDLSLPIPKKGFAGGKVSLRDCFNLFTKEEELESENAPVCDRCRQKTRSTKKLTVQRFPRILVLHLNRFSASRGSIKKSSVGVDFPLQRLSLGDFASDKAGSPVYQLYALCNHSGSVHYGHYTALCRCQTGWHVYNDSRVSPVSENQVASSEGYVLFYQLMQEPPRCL

## COc1cc(CNC(=O)C2CCN(C(C)c3cccc(-c4ccccc4)c3)CC2)ccn1 (stereo not drawn) [Compound 1, 1-{1-[(1,1′-biphenyl)-3-yl]ethyl}-N-[(2-methoxypyridin-4-yl)methyl]piperidine-4-carboxamide]
SARS-CoV-2 PLpro [1]
  loss of potency relative to parent 5c: 20 fold
SARS-CoV-2 PLpro [1]; calculated IC50
  IC50: 18000 nM

## COc1cc(CNC(=O)C2CCN(C(C)c3csc4ccccc34)CC2)ccn1 (stereo not drawn) [Compound 2, 1-{1-[benzo(b)thiophen-3-yl]ethyl}-N-[(2-methoxypyridin-4-yl)methyl]piperidine-4-carboxamide formate]
SARS-CoV-2 PLpro [1]; calculated IC50
  IC50: 4500 nM

## COc1cc(CNC(=O)C2CCN(C(C)c3c(C)sc4ccccc34)CC2)ccn1 (stereo not drawn) [Compound 3, N-[(2-methoxypyridin-4-yl)methyl]-1-{1-[2-methylbenzo(b)thiophen-3-yl]ethyl}piperidine-4-carboxamide]
SARS-CoV-2 PLpro [1]
  potency against SARS-CoV-2 PLpro in words: completely inactive

## C[C@H](c1cccc2ccccc12)N1CCC(C(=O)NCc2cccc(F)c2)CC1 [Compound 3k]
In vitro [2]
  half-life: 5 min
  microsomal CLint: 337 µL/min/mg
In vitro [3]
  half-life: 7 min
  microsomal CLint: 247 µL/min/mg
SARS-CoV-2 [4]
  reduction of viral titer: 1 log
other
  Mouse plasma protein binding: 95.3 % bound
SARS-CoV PLpro [5]; KD Exp1, SARS-CoV
  Kd: 662 nM
SARS-CoV PLpro [5]; KD Exp2, SARS-CoV
  Kd: 795 nM
SARS-CoV PLpro [5]; KD Exp3, SARS-CoV
  Kd: 686 nM
SARS-CoV PLpro [5]; KD, SARS-CoV
  Kd: 714 nM and 710 nM
SARS-CoV-2 PLpro [1]; IC50, SARS-CoV-2
  IC50: 1020 nM
MERS-CoV PLpro [6]
  IC50: > 98000 nM
SARS-CoV-2 PLpro [7]; KD Exp1, SARS-CoV-2 PLpro WT
  Kd: 2000 nM
SARS-CoV-2 PLpro [7]; KD Exp2, SARS-CoV-2 PLpro WT
  Kd: 2350 nM
SARS-CoV-2 PLpro [7]; KD Exp3, SARS-CoV-2 PLpro WT
  Kd: 2850 nM
SARS-CoV-2 PLpro [7]; KD, SARS-CoV-2
  Kd: 2400 ± 430 nM
In vitro [8]
  Papp A→B: 35 ×10⁻⁶ cm/s
  Papp B→A: 36 ×10⁻⁶ cm/s
Caco-2 cell monolayers
  efflux in Caco-2: no evidence of efflux
physchem; pH 2, aqueous buffer
  solubility kinetic: > 100 µg/mL
physchem; pH 6.5, aqueous buffer
  solubility kinetic: 12.5 to 25 µg/mL (≈ 32 to 64 µM)
MERS-CoV PLpro [9]
  Kd: > 20000 nM
MERS-CoV PLpro [9]; read-out: KD Exp1, MERS-CoV
  Kd: > 20000 nM
MERS-CoV PLpro [9]; read-out: KD Exp3, MERS-CoV
  Kd: > 20000 nM
SARS-CoV PLpro [10]
  IC50: 860 nM

## COc1cc(CNC(=O)C2CCN(C(C)c3cc(Cl)ccc3OC)CC2)ccn1 (stereo not drawn) [Compound 4, 1-(1-(5-chloro-2-methoxyphenyl)ethyl)-N-((2-methoxypyridin-4-yl)methyl)piperidine-4-carboxamide]
SARS-CoV-2 PLpro [1]; calculated IC50
  IC50: 4600 nM

## CCOc1ccc(Cl)cc1C(C)N1CCC(C(=O)NCc2ccnc(OC)c2)CC1 (stereo not drawn) [Compound 5, 1-[1-(5-chloro-2-ethoxyphenyl)ethyl]-N-[(2-methoxypyridin-4-yl)methyl]piperidine-4-carboxamide]
SARS-CoV-2 PLpro [1]; calculated IC50
  IC50: 7900 nM

## COc1cc(CNC(=O)C2CCN([C@H](C)c3cccc4ccccc34)CC2)ccn1 [Compound 5c]
In vitro [2]
  half-life: 20 min
  microsomal CLint: 86 µL/min/mg
In vitro [3]
  half-life: 16 min
  microsomal CLint: 110 µL/min/mg
SARS-CoV-2 [4]
  reduction of viral titer: 1 log
other
  Mouse plasma protein binding: 86.3 % bound
SARS-CoV PLpro [5]; KD Exp1, SARS-CoV
  Kd: 833 nM
SARS-CoV PLpro [5]; KD Exp2, SARS-CoV
  Kd: 880 nM
SARS-CoV PLpro [5]; KD Exp3, SARS-CoV
  Kd: 853 nM
SARS-CoV PLpro [5]; KD, SARS-CoV
  Kd: 855 nM and 860 nM
SARS-CoV-2 PLpro [1]; IC50, SARS-CoV-2
  IC50: 720 nM
SARS-CoV-2 PLpro [1]; calculated IC50
  IC50: 860 nM
MERS-CoV PLpro [6]
  IC50: > 98000 nM
SARS-CoV-2 PLpro [7]; KD Exp1, SARS-CoV-2 PLpro WT
  Kd: 4110 nM
SARS-CoV-2 PLpro [7]; KD Exp2, SARS-CoV-2 PLpro WT
  Kd: 2450 nM
SARS-CoV-2 PLpro [7]; KD Exp3, SARS-CoV-2 PLpro WT
  Kd: 2600 nM
SARS-CoV-2 PLpro [7]; KD, SARS-CoV-2
  Kd: 3050 ± 920 nM
In vitro [8]
  Papp A→B: 53 ×10⁻⁶ cm/s
  Papp B→A: 55 ×10⁻⁶ cm/s
Caco-2 cell monolayers
  efflux in Caco-2: no evidence of efflux
[11]
  inhibition of human DUBs: did not inhibit any of the human DUBs tested; also recorded: does not notably inhibit any of the tested human DUBs
physchem; pH 2, aqueous buffer
  solubility kinetic: > 100 µg/mL
physchem; pH 6.5, aqueous buffer
  solubility kinetic: 50 to 100 µg/mL (≈ 124 to 248 µM)
MERS-CoV PLpro [9]
  Kd: > 20000 nM
MERS-CoV PLpro [9]; read-out: KD Exp1, MERS-CoV
  Kd: > 20000 nM
MERS-CoV PLpro [9]; read-out: KD Exp3, MERS-CoV
  Kd: > 20000 nM
SARS-CoV PLpro [10]
  IC50: 500 nM

## COc1cc(CNC(=O)C2CCN(C(C)c3c(OC)ccc4ccccc34)CC2)ccn1.O=CO (stereo not drawn) [Compound 6, 1-[1-(2-methoxynaphthalen-1-yl)ethyl]-N-[(2-methoxypyridin-4-yl)methyl]piperidine-4-carboxamide formate]
SARS-CoV-2 PLpro [1]
  potency against SARS-CoV-2 PLpro in words: not tolerated

## CCOc1ccc2ccccc2c1C(C)N1CCC(C(=O)NCc2ccnc(OC)c2)CC1 (stereo not drawn) [Compound 7, 1-[1-(2-ethoxynaphthalen-1-yl)ethyl]-N-[(2-methoxypyridin-4-yl)methyl]piperidine-4-carboxamide]
SARS-CoV-2 PLpro [1]
  potency against SARS-CoV-2 PLpro in words: not tolerated

## COc1cc(CNC(=O)C2CCN(C(C)c3ccc(F)c4ccccc34)CC2)ccn1 (stereo not drawn) [Compound 8, 1-[1-(4-fluoronaphthalen-1-yl)ethyl]-N-[(2-methoxypyridin-4-yl)methyl]piperidine-4-carboxamide]
SARS-CoV-2 PLpro [1]
  loss of potency relative to parent 5c: 3 fold
SARS-CoV-2 PLpro [1]; calculated IC50
  IC50: 2200 nM

## COc1cc(CNC(=O)C2CCN(C(C)c3ccc(OC)c4ccccc34)CC2)ccn1 (stereo not drawn) [Compound 9, 1-[1-(4-methoxynaphthalen-1-yl)ethyl]-N-[(2-methoxypyridin-4-yl)methyl]piperidine-4-carboxamide]
In vitro [2]
  half-life: 35 min
  microsomal CLint: 50 µL/min/mg
In vitro [3]
  half-life: 39 min
  microsomal CLint: 45 µL/min/mg
SARS-CoV-2 [4]
  reduction of viral titer: 1 log
  viral titer: below the limit of detection
other
  Mouse plasma protein binding: 90.1 % bound
SARS-CoV PLpro [5]; KD Exp1, SARS-CoV
  Kd: 805 nM
SARS-CoV PLpro [5]; KD Exp2, SARS-CoV
  Kd: 800 nM
SARS-CoV PLpro [5]; KD Exp3, SARS-CoV
  Kd: 840 nM
SARS-CoV PLpro [5]; KD, SARS-CoV
  Kd: 815 nM and 820 nM
SARS-CoV-2 PLpro [1]; IC50, SARS-CoV-2
  IC50: 760 nM
MERS-CoV PLpro [6]
  IC50: > 98000 nM
SARS-CoV-2 PLpro [7]; KD Exp1, SARS-CoV-2 PLpro WT
  Kd: 1420 nM
SARS-CoV-2 PLpro [7]; KD Exp2, SARS-CoV-2 PLpro WT
  Kd: 1820 nM
SARS-CoV-2 PLpro [7]; KD Exp3, SARS-CoV-2 PLpro WT
  Kd: 2340 nM
SARS-CoV-2 PLpro [7]; KD, SARS-CoV-2
  Kd: 1860 ± 460 nM
In vitro [8]
  Papp A→B: 46 ×10⁻⁶ cm/s
  Papp B→A: 46 ×10⁻⁶ cm/s
Caco-2 cell monolayers
  efflux in Caco-2: no evidence of efflux
physchem; pH 2, aqueous buffer
  solubility kinetic: > 140 µg/mL
physchem; pH 6.5, aqueous buffer
  solubility kinetic: 70 to 140 µg/mL (≈ 161 to 323 µM)
MERS-CoV PLpro [9]
  Kd: > 20000 nM
MERS-CoV PLpro [9]; read-out: KD Exp1, MERS-CoV
  Kd: > 20000 nM
MERS-CoV PLpro [9]; read-out: KD Exp3, MERS-CoV
  Kd: > 20000 nM
SARS-CoV PLpro [10]
  IC50: 700 nM

## COc1cc(C(=O)NCC2CCN([C@H](C)c3cccc4ccccc34)CC2)ccn1 [Compound 10, (R)-2-methoxy-N-((1-(1-(naphthalen-1-yl)ethyl)piperidin-4-yl)methyl)isonicotinamide]
SARS-CoV-2 PLpro [1]
  loss of potency relative to parent 5c: 4 fold
SARS-CoV-2 PLpro [1]; calculated IC50
  IC50: 3400 nM

## COc1cc(CNCC2CCN([C@H](C)c3cccc4ccccc34)CC2)ccn1.O=CO [Compound 11, (R)-1-(2-methoxypyridin-4-yl)-N-((1-(1-(naphthalen-1-yl)ethyl)piperidin-4-yl)methyl)methanamine formate]
SARS-CoV-2 PLpro [1]
  loss of potency relative to parent 5c: 7 fold
SARS-CoV-2 PLpro [1]; calculated IC50
  IC50: 5700 nM

## CNC(=O)C1CCN([C@H](C)c2cccc3ccccc23)CC1 [Compound 12, (R)-N-methyl-1-(1-(naphthalen-1-yl)ethyl)piperidine-4-carboxamide]
SARS-CoV-2 PLpro [1]
  loss of potency relative to parent 5c: 4 fold
SARS-CoV-2 PLpro [1]; calculated IC50
  IC50: 3100 nM

## C[C@H](c1cccc2ccccc12)N1CCC(C(=O)NCc2ccn(C)c(=O)c2)CC1 [Compound 13, (R)-N-[(1-methyl-2-oxo-1,2-dihydropyridin-4-yl)methyl]-1-[1-(naphthalen-1-yl)ethyl]piperidine-4-carboxamide]
SARS-CoV-2 PLpro [1]; calculated IC50
  IC50: 690 nM

## Cc1ncc(CNC(=O)C2CCN([C@H](C)c3cccc4ccccc34)CC2)s1 [Compound 14, (R)-N-[(2-methylthiazol-5-yl)methyl]-1-(1-(naphthalen-1-yl)ethyl)piperidine-4-carboxamide]
SARS-CoV-2 PLpro [1]; calculated IC50
  IC50: 710 nM

## C[C@H](c1cccc2ccccc12)N1CCC(C(=O)NCc2cccnc2)CC1 [Compound 15, (R)-1-(1-(naphthalen-1-yl)ethyl)-N-(pyridin-3-ylmethyl)piperidine-4-carboxamide]
SARS-CoV-2 PLpro [1]; calculated IC50
  IC50: 820 nM

## C[C@H](c1cccc2ccccc12)N1CCC(C(=O)NCc2ccc(S(N)(=O)=O)cc2)CC1 [Compound 16, (R)-1-(1-(naphthalen-1-yl)ethyl)-N-(4-sulfamoylbenzyl)piperidine-4-carboxamide formate]
SARS-CoV-2 PLpro [1]; calculated IC50
  IC50: 590 nM

## C[C@H](c1cccc2ccccc12)N1CCC(C(=O)NCC2CCOCC2)CC1 [Compound 17, (R)-1-(1-(naphthalen-1-yl)ethyl)-N-((tetrahydro-2H-pyran-4-yl)methyl)piperidine-4-carboxamide]
SARS-CoV-2 PLpro [1]; calculated IC50
  IC50: 1300 nM

## CC(c1cccc2ccccc12)N1CCC(C(=O)NCc2cccc(F)c2)CC1 (stereo not drawn) [rac3k]
SARS-CoV-2 [12]
  decrease of SARS-CoV-2 viral titers (TCID50): 2-3 orders of magnitude
SARS-CoV-2 PLpro [13]
  IC50: 600 to 800 nM
SARS-CoV-2 PLpro [1]; PLpro IC50
  IC50: 1500 nM
Human USP21
  IC50: > 98000 nM

## COc1cc(CNC(=O)C2CCN(C(C)c3cccc4ccccc34)CC2)ccn1 (stereo not drawn) [rac5c]
SARS-CoV-2 [12]
  decrease of SARS-CoV-2 viral titers (TCID50): 2-3 orders of magnitude
SARS-CoV-2 PLpro [13]
  IC50: 600 to 800 nM
SARS-CoV-2 PLpro [1]; PLpro IC50
  IC50: 790 nM
Calu-3 cells
  cytotoxicity, no evidence up to: > 33 µM
Human USP21
  IC50: > 98000 nM
